Read-outs that look alike come from different tables or passages of the source. No end group written: not given here.
Columns and labels:
[1] = tested on: mineralized mouse bone marrow nodules; experiment: Binding to mineralized mouse bone marrow nodules (fluorescence microscopy); format: cell-based; conditions: 2.5 μM 5(6)-carboxyfluorescein-labeled peptide, three weeks
Experimental: FIG. 2: Binding of 6DSS peptide to mineralized mouse bone marrow nodules (MBMNs). Mouse bone marrow cultures were grown to confluence, then treated for three weeks with 2.5 μM scrambled control peptide or 2.5 μM 6DSS. Cultures were imaged by fluorescence microscopy using a FITC filter set. A. Brightfield image of mineralized MBMNs from a culture treated with 6DSS. B. Fluorescence image of the field shown in (A). […] C. Brightfield image of mineralized MBMNs from a culture treated with scrambled control peptide. D. Fluorescence image of the field shown in (C), illustrating both the lack of binding of the control peptide to the MBMN's and the lack of autofluorescence within the sample. Mouse bone marrow cultures were grown to confluence in DMEM+10% FBS, then treated continuously for three weeks with either 2.5 μM 5(6)-carboxyfluorescein-labeled 6DSS or 2.5 μM 5(6)-carboxyfluorescein-labeled peptide #3-1 (scrambled control peptide, SEQ. ID NO. 24) in aMEM+10% FBS with 50 μg/mL ascorbic acid 4 mM β-glycerophosphate. Cultures were imaged by fluorescence microscopy using a FITC excitation/emission filter set, and both brightfield and fluorescence images were obtained.

[2] = Binding of labeled 6DSS to sagitally sectioned human teeth (CLSM)
Experimental: FIG. 1: Binding affinities of DSS and DSS variant peptides for hydroxyapatite and tooth surfaces. A-C. Fluorescein-labeled peptides at concentrations ranging from 0-100 μM were incubated with 0.3 mg of hydroxyapatite nanocrystals (specific surface area=100 m^2/g) for ten minutes, followed by removal of the hydroxyapatite by centrifugation. The amount of peptide in the mixture before and after hydroxyapatite removal was determined by Abs480. Isotherms were plotted and fit to the Langmuir equation to extract values for KA, a constant reflecting the affinity of the peptide for the hydroxyapatite surface. D. Sagitally sectioned human teeth were incubated with 12.5 μM 5(6) carboxyfluorescein-labeled 6DSS peptide for ten minutes, followed by rinsing. Peptide binding to tooth surfaces was visualized by Confocal Laser Scanning Microscopy (CLSM) using blue laser illumination (λA=488 nm) and a FITC emission filter. Left side, light colored region: dentin. Right side, dark colored region: enamel.
Control samples were prepared without peptide. Samples were rinsed after treatment and imaged by confocal laser scanning microscopy (CLSM) using blue laser illumination (excitation wavelength (λ)=488 nm) and a FITC emission filter.

[3] = Tissue specific binding of DSS peptides and variants in human teeth (CLSM); conditions: 12.5 μM labeled peptide
Experimental: FIG. 8: Fluorescence micrographs showing tissue specificity in the binding of DSS peptides and variants. Adult human teeth were exposed to 12.5 μM 5(6)-carboxyfluorescein-labeled peptide without demineralization, washed extensively, and imaged by CLSM. For each section, multiple scans were collected and assembled in an automated mode to generate panels of images representing an area of 13×13 mm, sufficient in most cases to encompass the whole section. The peptides used for each section are labeled beneath each panel, and within each panel the tooth is oriented with the root toward the top of the image and the crown toward the bottom. Tissue layers are labeled as follows: RTD=Root Tip Dentin; CPD=Circumpulpal Dentin; MD=Mantle Dentin; P=Pulp Cavity Wall; DEJ=Dentin-Enamel Junction; E=Enamel; BE=Basal Enamel; CE=Cortical Enamel; CL=Carious Lesion; PB=Periodontal Bone.
In order to investigate the tissue specificity of DSS peptide binding to tooth tissue, sections of human teeth were exposed to DSS peptides and variants, then imaged by CLSM as described in Example 2. The peptides utilized for these experiments were 8DSS, 8ASS, 8DAA, 8NAA, 4DSS, 4ESS, 4NSS, 4DTT, 4ETT, 4NTT, and 6DSS. Sagittal sections of human teeth extracted during normal clinical practice were polished and then incubated for ten minutes in a solution of the appropriate 5(6) carboxyfluorescein-labeled peptide (12.5 μM) containing 10 mM NaCl and 50 mM HEPES, pH 7.0. Control samples were prepared without peptide. Samples were washed extensively after treatment and imaged by CLSM using blue laser illumination (λ=488 nm) and a FITC emission filter, with identical camera and microscope settings for each sample. For each section, multiple scans were collected and assembled in an automated mode to generate panels of images representing an area of 13×13 mm, sufficient in most cases to encompass the whole section. […] Significant binding was also seen to the edges of the pulp cavity.

[4] = Preferential binding to carious lesions in teeth (CLSM); parameters: species or system human; conditions: labeled peptide, settings optimized per sample
Experimental: FIG. 9: Fluorescence micrographs showing specific binding of DSS peptides and variants to carious lesions in teeth. Adult human teeth were exposed to 12.5 uM 5(6)-carboxyfluorescein-labeled peptide without demineralization, washed extensively, and imaged by CLSM. Microscope and camera settings were optimized separately for each sample. […] White traces on the right side of each panel identify the position of the tooth surface, while arrows indicate the position of the stained lesion.
Sections of human teeth containing obvious carious lesions, which consist of demineralized enamel, were polished and exposed to 5(6)-carboxyfluorescein-labeled DSS peptides and variants using the protocol described in Example 2. The sections were washed extensively and imaged by CLSM using blue laser illumination (λ=488 nm) and a FITC emission filter, with microscope and camera settings adjusted for each sample to optimize the signal detected from each peptide. The images were examined to identify the relative levels of peptide binding in healthy versus carious tissue. […] Given their ability to remineralize at sites of enamel degradation (Example 6), they can also be used to initiate remineralization at sites of enamel degradation such as caries or injury sites without causing inappropriate nucleation on healthy tissue surfaces.

[5] = tested on: Streptococcus mutans strain UA159; format: cell-based
From the text: In order to determine the suitability of DSS peptides to serve as targeting moieties to deliver therapeutic compounds to mineralized surfaces, peptides were synthesized containing an N-terminal (DSS)4, (DSS)5, or (DSS)6 peptide, a triglycine (GGG) linker, and a 2c-4 antimicrobial peptide (SEQ ID NO:26) (J. He, unpublished). The sequences of these fusion proteins are set forth in SEQ ID NOs:27-29, respectively. The antimicrobial activity of these peptides against anaerobic planktonic bacteria was determined by a modification of a previously described assay (Qi 2005). Briefly, Streptococcus mutans strain UA159 cells were diluted to ˜1×10^5 cfu/mL in Todd-Hewitt (TH) broth medium and mixed with either suspended hydroxyapatite nanocrystals (Berkeley Advanced Biomaterials, Inc., 0.03% w/v) or, for control samples, an equivalent volume of deionized water. Aliquots were transferred into 96-well plates (Fisher). Serial dilutions of the peptides were then made and added to the bacteria. […] Nonetheless, some antimicrobial activity is retained by this peptide.

**Q.** For “6DSS: peptide containing six Asp-Ser-Ser (DSS) repeats, SEQ ID NO:14 (DSSDSSDSSDSSDSSDSS; calcium binding peptide containing six DSS repeats, 6DSS, (DSS)-6)”, which “Staining of mineralizing nodules” value [1] is on record?
**A.** Its value is “Strong staining”.

**Q.** And the “Fluorescent staining of tooth surface” value ([2]; 12.5 μM 5(6) carboxyfluorescein-labeled peptide, ten minutes)?
**A.** Its value is “Intense fluorescent staining”.

**Q.** And the “Location of peptide binding in tooth section” value ([2]; 12.5 μM labeled peptide, dentin versus enamel)?
**A.** Its value is “limited to the dentin”.

**Q.** What about the “Tissue binding pattern in healthy tooth section” value ([3]; nondemineralized teeth) of the same substance?
**A.** Its value is “bound primarily to the mantle dentin”.

**Q.** And the “Level of binding (staining) to tooth surfaces” value ([3]; ten minutes, identical settings)?
**A.** The value was “greatest levels of staining”.

**Q.** And the “Specificity of binding to carious lesions versus surrounding healthy enamel” value [4]?
**A.** The value was “highly specific binding to carious lesions”.

**Q.** What about the “Strength of staining of carious lesions” value [4] of the same substance?
**A.** The value was “exceptionally strong staining of carious lesions”.

**Q.** Which MIC ([5]; strain UA159, 24 h) does the source give for LKRFLKWFKRF [b-34, reference compound] here?
**A.** Its MIC is 5.6 µM.

**Q.** Which results are given for DSSDSSDSSDSSGGGRWRWRWF [4DSS-2c4]?
**A.** MIC ([5]; planktonic S. mutans, with 0.03% (w/v) hydroxyapatite, approximately 24 hours): unaffected; MIC ([5]; strain UA159, 24 h): 52.5 µM

**Q.** Which “Staining of mineralizing nodules” value [1] does the source give for “peptide #3-1: scrambled control peptide, SEQ. ID NO. 24 (LIKHILHRL; scrambled control peptide #3-1) [reference compound]” here?
**A.** Its value is “No staining”.

**Q.** With RWRWRWF [2c-4, reference compound] as the substance, how does the MIC ([5]; strain UA159, 24 h) read?
**A.** Its MIC is 2 µM.

**Q.** With FHFHLHF [PL-135, reference compound] as the substance, how does the MIC ([5]; strain UA159, 24 h) read?
**A.** Its MIC is 21 µM.
